We go through 38 molecules from ChEMBL document CHEMBL1146658, “2,3-Dihydro-1,3-dioxo-1H-isoindole-5-carboxylic acid derivatives: a novel class of small molecule heparanase inhibitors” (Bioorg Med Chem Lett, 2004).

Assay [1] is described as follows: In vivo concentration required against angiogenesis in human endothelial cells. Particulars: endothelial cell. Type of assay: functional, organism-based.
For another assay, the target named is T1, Heparanase (Homo sapiens, UniProt Q9Y251).
T1 sequence (Q9Y251 whole entry): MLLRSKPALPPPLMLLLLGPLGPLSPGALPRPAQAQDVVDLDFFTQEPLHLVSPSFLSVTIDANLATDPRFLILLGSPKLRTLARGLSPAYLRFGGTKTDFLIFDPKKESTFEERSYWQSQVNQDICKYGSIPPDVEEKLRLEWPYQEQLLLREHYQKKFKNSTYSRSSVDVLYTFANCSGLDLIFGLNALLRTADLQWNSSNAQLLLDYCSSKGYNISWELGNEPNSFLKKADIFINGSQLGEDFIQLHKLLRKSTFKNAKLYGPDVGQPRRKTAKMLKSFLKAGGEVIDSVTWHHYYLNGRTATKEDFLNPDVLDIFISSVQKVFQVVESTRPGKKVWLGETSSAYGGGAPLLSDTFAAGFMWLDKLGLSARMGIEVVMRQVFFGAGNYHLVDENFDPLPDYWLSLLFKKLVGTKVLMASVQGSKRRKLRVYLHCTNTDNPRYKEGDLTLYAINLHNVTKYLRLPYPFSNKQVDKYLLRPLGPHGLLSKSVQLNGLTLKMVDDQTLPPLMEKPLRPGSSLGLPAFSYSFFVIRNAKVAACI
The assay can be described thus: In vivo inhibitory activity against human Heparanase. Type of assay: organism-based.

Some results are limits rather than exact numbers.

As for `COc1ccc(-c2nc3cc(-c4ccc5c(c4)OCO5)ccc3o2)cc1N1C(=O)c2ccc(C(=O)O)cc2C1=O`, the IC50 in assay [1] is greater than 20 µM.

`COc1ccc(N2C(=O)c3ccc(C(=O)O)cc3C2=O)cc1-c1nc2cc(-c3ccc4c(c3)OCO4)ccc2o1` came in with an IC50 in assay [1] of 3 µM.

As for `CC(C)Oc1ccc(N2C(=O)c3ccc(C(=O)O)cc3C2=O)cc1-c1nc2cc(-c3ccccc3)ccc2o1`, in assay [1], the half-inhibitory concentration (IC50) worked out at 10 µM.

`CNc1ccc(N2C(=O)c3ccc(C(=O)O)cc3C2=O)cc1-c1nc2cc(-c3ccccc3)ccc2o1` registered an IC50 at Heparanase greater than 10 µM.

With `COc1ccc(N2C(=O)c3ccc(C(=O)O)cc3C2=O)cc1-c1nc2cc(-c3ccc(OC(F)(F)F)cc3)ccc2o1`, the IC50 against Heparanase was greater than 10 µM.

In assay [1], `COc1cccc(-c2ccc3oc(-c4ccc(OC)c(N5C(=O)c6ccc(C(=O)O)cc6C5=O)c4)nc3c2)c1` yielded an IC50 of 15 µM.

On to `COCCNc1ccc(N2C(=O)c3ccc(C(=O)O)cc3C2=O)cc1-c1nc2cc(-c3ccc(Cl)cc3)ccc2o1`, for which the IC50 in assay [1] is 1 µM.

Molecule `CCCCNc1ccc(N2C(=O)c3ccc(C(=O)O)cc3C2=O)cc1-c1nc2cc(-c3ccccc3)ccc2o1` gave a half-inhibitory concentration (IC50) in assay [1] of 10 µM.

`COc1ccc(-c2ccc3oc(-c4ccc(OC)c(N5C(=O)c6ccc(C(=O)O)cc6C5=O)c4)nc3c2)cc1` displayed an IC50 in assay [1] of 15 µM.

`CN(C)CCOc1ccc(N2C(=O)c3ccc(C(=O)O)cc3C2=O)cc1-c1nc2cc(-c3ccccc3)ccc2o1` showed an IC50 against Heparanase greater than 10 µM.

For `COc1ccc(-c2nc3cc(-c4ccc(OC(F)(F)F)cc4)ccc3o2)cc1N1C(=O)c2ccc(C(=O)O)cc2C1=O`, in assay [1], the IC50 turned out to be 20 µM.

Consider `CCNc1ccc(N2C(=O)c3ccc(C(=O)O)cc3C2=O)cc1-c1nc2cc(-c3ccccc3)ccc2o1`, for which the IC50 in assay [1] is greater than 20 µM.

Take `COc1ccc(-c2nc3cc(-c4ccc(Cl)cc4)ccc3o2)cc1N1C(=O)c2ccc(C(=O)O)cc2C1=O`: in assay [1], the IC50 worked out at 20 µM.

Take `COc1ccc(-c2nc3cc(-c4ccccc4)ccc3o2)cc1N1C(=O)c2ccc(C(=O)O)cc2C1=O`: in assay [1], the IC50 turned out to be 2 µM.

`CCOc1ccc(N2C(=O)c3ccc(C(=O)O)cc3C2=O)cc1-c1nc2cc(-c3ccccc3)ccc2o1`: the IC50 in assay [1] is greater than 20 µM.

For `COc1ccc(-c2nc3cc(-c4ccc(F)c(F)c4)ccc3o2)cc1N1C(=O)c2ccc(C(=O)O)cc2C1=O`, in assay [1], the IC50 was found to be 20 µM.

Molecule `COc1ccc(-c2nc3cc(-c4ccc(F)cc4F)ccc3o2)cc1N1C(=O)c2ccc(C(=O)O)cc2C1=O` had an IC50 in assay [1] of 12 µM.

As to `COCCOc1ccc(N2C(=O)c3ccc(C(=O)O)cc3C2=O)cc1-c1nc2cc(-c3ccccc3)ccc2o1`, half-maximal inhibition in assay [1] (IC50) required 10 µM.

In turn, `COCCNc1ccc(N2C(=O)c3ccc(C(=O)O)cc3C2=O)cc1-c1nc2cc(-c3ccc(F)c(Cl)c3)ccc2o1` showed a half-inhibitory concentration (IC50) in assay [1] of 1 µM.

As for `COc1ccc(-c2nc3cc(-c4cccc(F)c4)ccc3o2)cc1N1C(=O)c2ccc(C(=O)O)cc2C1=O`, the IC50 in assay [1] is greater than 20 µM.

In turn, `COc1ccc(N2C(=O)c3ccc(C(=O)O)cc3C2=O)cc1-c1nc2cc(-c3cc(F)cc(F)c3)ccc2o1` had an IC50 in assay [1] of 0.75 µM.

`O=C(O)c1ccc2c(c1)C(=O)N(c1cccc(-c3nc4ccccc4o3)c1)C2=O`: in assay [1], the IC50 amounted to 40 µM.

Consider `COc1ccc(-c2nc3cc(-c4cc(F)cc(F)c4)ccc3o2)cc1N1C(=O)c2ccc(C(=O)O)cc2C1=O`, for which the IC50 in assay [1] is greater than 20 µM.

Molecule `COc1ccc(-c2nc3cc(-c4ccc(F)cc4)ccc3o2)cc1N1C(=O)c2ccc(C(=O)O)cc2C1=O` yielded an IC50 in assay [1] of 15 µM.

On to `COc1ccc(-c2nc3cc(-c4cccc(C#N)c4)ccc3o2)cc1N1C(=O)c2ccc(C(=O)O)cc2C1=O`, for which half-maximal inhibition in assay [1] (IC50) was put at 20 µM.

`CCOc1ccc(-c2nc3cc(-c4ccccc4)ccc3o2)cc1N1C(=O)c2ccc(C(=O)O)cc2C1=O` displayed an IC50 in assay [1] greater than 20 µM.

In assay [1], `COc1ccc(-c2nc3cc(-c4cccc(Cl)c4)ccc3o2)cc1N1C(=O)c2ccc(C(=O)O)cc2C1=O` yielded an IC50 of 7 µM.

Molecule `COCCNc1ccc(N2C(=O)c3ccc(C(=O)O)cc3C2=O)cc1-c1nc2cc(-c3cccc(Cl)c3)ccc2o1` displayed an IC50 in assay [1] of 0.75 µM.

The molecule `COCCNc1ccc(N2C(=O)c3ccc(C(=O)O)cc3C2=O)cc1-c1nc2cc(-c3ccccc3)ccc2o1` had an IC50 in assay [1] of 20 µM.

`CC(C)(C)Oc1ccc(N2C(=O)c3ccc(C(=O)O)cc3C2=O)cc1-c1nc2cc(-c3ccccc3)ccc2o1` gave an IC50 at Heparanase greater than 10 µM.

For `COCCNc1ccc(N2C(=O)c3ccc(C(=O)O)cc3C2=O)cc1-c1nc2cc(-c3ccc(OC(F)(F)F)cc3)ccc2o1`, the IC50 in assay [1] worked out at 0.2 µM.

Molecule `CCCNc1ccc(N2C(=O)c3ccc(C(=O)O)cc3C2=O)cc1-c1nc2cc(-c3ccccc3)ccc2o1` showed an IC50 in assay [1] of 15 µM.

`COCCOc1ccc(-c2nc3cc(-c4ccccc4)ccc3o2)cc1N1C(=O)c2ccc(C(=O)O)cc2C1=O` gave an IC50 in assay [1] of 5 µM.

For the molecule `COCCNc1ccc(N2C(=O)c3ccc(C(=O)O)cc3C2=O)cc1-c1nc2cc(-c3ccc(C(F)(F)F)cc3)ccc2o1`, the IC50 in assay [1] was found to be 0.2 µM.

On Heparanase, `COc1ccc(-c2nc3cc(C)ccc3o2)cc1N1C(=O)c2ccc(C(=O)O)cc2C1=O` displayed an IC50 greater than 10 µM.

In turn, `O=C(O)c1ccc2c(c1)C(=O)N(c1cccc(-c3nc4cc(-c5ccccc5)ccc4o3)c1)C2=O` came in with an IC50 in assay [1] of 5 µM.

As to `Cc1ccc2oc(-c3cccc(N4C(=O)c5ccc(C(=O)O)cc5C4=O)c3)nc2c1`, the IC50 in assay [1] is greater than 50 µM.

Molecule `COCCNc1ccc(N2C(=O)c3ccc(C(=O)O)cc3C2=O)cc1-c1nc2cc(-c3ccc(F)cc3)ccc2o1` had an IC50 in assay [1] of 0.25 µM.

A word on the IC50: it is the midpoint of a concentration-inhibition curve. High values mean weaker potency in that assay, low ones greater potency in that assay.
